Results on three compounds are retold here after ChEMBL document CHEMBL5291721, “A preclinical secondary pharmacology resource illuminates target-adverse drug reaction associations of marketed drugs” (Nat Commun, 2023).

Data set [1] has as its target T1, Amine oxidase [flavin-containing] A (Homo sapiens, UniProt P21397).
T1 sequence (P21397 whole entry): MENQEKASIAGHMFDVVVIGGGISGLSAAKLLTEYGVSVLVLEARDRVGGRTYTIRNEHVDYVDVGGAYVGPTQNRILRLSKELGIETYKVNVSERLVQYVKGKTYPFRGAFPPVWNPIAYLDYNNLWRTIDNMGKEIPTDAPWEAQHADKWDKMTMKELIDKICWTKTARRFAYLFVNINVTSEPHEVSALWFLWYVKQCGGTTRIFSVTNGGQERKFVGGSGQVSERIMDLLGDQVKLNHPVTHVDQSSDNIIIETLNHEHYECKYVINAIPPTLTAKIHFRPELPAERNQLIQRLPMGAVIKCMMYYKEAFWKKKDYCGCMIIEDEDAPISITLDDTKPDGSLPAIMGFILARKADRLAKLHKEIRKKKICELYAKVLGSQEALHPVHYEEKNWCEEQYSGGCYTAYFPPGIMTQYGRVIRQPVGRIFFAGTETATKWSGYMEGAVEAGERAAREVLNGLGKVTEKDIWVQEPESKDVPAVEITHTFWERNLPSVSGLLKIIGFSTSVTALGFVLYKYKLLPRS
It is filed as functional.

The target of data set [2] is T2, Alpha-2A adrenergic receptor (Homo sapiens, UniProt P08913).
T2 sequence (P08913 whole entry): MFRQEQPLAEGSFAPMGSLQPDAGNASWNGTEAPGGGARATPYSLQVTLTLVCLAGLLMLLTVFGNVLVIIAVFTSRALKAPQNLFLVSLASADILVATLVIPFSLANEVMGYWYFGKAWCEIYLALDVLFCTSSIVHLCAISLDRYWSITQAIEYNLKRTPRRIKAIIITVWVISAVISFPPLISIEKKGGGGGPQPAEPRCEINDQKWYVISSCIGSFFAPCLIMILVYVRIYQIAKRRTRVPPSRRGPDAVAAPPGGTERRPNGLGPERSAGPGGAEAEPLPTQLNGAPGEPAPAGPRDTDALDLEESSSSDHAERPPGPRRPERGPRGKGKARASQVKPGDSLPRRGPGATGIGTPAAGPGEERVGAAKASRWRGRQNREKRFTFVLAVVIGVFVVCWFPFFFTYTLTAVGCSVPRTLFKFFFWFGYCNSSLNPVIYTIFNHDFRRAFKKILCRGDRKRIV

Data set [3] has as its target T3, Alpha-1A adrenergic receptor (Homo sapiens, UniProt P35348).
T3 sequence (P35348 whole entry): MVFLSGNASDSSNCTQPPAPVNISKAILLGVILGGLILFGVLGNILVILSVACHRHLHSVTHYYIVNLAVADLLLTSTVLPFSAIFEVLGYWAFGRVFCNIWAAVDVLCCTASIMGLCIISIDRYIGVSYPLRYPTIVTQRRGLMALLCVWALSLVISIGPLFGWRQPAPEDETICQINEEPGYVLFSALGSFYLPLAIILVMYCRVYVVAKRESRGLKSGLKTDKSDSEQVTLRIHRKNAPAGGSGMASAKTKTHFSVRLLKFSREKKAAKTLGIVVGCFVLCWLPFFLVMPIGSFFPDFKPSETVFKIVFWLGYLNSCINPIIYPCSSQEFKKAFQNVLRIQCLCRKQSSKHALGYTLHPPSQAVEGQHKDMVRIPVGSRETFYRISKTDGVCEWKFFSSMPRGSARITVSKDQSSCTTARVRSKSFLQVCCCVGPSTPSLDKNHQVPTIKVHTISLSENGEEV
It is filed as functional, cell-based.

For data set [4], the target named is T3, Alpha-1A adrenergic receptor. The data set is classed as functional, cell-based. The source holds these as a separate data set.
In a further data set the target is T4, Progesterone receptor (Homo sapiens, UniProt P06401).
T4 sequence (P06401 whole entry): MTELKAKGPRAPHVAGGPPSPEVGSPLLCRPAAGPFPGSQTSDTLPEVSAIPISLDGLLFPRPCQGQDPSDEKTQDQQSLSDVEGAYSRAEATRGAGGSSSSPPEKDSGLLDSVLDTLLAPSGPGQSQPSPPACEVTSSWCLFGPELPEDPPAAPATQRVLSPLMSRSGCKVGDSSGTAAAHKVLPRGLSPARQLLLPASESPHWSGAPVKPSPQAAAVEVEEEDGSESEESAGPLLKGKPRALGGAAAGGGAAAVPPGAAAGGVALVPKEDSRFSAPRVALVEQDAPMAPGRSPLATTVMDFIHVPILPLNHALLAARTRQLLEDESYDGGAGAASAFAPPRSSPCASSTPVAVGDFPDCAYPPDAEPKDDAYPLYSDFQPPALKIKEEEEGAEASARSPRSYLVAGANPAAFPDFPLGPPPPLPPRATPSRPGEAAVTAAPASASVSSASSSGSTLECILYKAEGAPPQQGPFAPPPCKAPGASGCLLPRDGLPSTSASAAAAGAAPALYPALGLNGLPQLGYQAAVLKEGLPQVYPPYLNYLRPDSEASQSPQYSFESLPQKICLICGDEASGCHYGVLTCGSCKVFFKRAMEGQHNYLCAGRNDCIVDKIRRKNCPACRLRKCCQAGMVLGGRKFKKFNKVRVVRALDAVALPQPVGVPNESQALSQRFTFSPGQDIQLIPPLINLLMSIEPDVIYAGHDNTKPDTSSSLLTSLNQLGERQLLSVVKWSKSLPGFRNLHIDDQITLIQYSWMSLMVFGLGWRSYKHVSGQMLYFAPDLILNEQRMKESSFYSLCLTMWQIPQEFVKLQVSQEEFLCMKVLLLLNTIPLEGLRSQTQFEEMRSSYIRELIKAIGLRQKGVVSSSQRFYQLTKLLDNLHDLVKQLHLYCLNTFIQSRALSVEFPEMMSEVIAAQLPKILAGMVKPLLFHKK

Data set [5] deals with Voltage-gated inwardly rectifying potassium channel KCNH2 (Homo sapiens, UniProt Q12809). The data set is classed as functional.
Sequence of Voltage-gated inwardly rectifying potassium channel KCNH2 (Q12809 whole entry): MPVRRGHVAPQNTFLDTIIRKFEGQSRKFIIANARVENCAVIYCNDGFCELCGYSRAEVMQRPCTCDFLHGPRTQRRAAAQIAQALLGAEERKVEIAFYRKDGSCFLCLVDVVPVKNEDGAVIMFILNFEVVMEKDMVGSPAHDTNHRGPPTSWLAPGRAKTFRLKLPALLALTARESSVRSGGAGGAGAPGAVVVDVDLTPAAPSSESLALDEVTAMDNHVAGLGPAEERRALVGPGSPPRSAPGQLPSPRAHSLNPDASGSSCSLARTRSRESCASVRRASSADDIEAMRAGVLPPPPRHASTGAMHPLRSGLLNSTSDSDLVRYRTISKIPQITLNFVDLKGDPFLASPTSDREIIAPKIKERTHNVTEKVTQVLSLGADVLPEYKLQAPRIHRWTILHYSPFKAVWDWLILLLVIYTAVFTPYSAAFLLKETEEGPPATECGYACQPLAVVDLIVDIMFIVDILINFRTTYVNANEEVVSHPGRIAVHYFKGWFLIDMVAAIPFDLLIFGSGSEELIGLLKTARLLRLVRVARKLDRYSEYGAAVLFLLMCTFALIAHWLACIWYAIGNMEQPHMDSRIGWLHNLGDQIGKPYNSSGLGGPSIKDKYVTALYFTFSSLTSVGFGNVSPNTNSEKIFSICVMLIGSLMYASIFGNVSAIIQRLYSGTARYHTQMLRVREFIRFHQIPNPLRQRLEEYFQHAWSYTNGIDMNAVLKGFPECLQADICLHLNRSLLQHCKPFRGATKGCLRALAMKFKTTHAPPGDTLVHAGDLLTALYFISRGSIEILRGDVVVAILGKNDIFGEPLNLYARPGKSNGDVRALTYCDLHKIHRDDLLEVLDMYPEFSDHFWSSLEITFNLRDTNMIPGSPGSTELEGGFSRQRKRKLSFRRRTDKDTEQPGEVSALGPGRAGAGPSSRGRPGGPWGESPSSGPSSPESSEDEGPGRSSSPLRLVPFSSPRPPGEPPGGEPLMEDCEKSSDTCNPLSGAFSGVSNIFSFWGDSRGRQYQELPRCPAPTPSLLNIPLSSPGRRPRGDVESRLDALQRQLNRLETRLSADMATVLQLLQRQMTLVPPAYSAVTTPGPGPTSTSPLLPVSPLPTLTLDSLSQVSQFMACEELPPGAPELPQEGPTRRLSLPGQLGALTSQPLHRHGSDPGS
Data set [6] concerns the target T5, Muscarinic acetylcholine receptor M2 (Homo sapiens, UniProt P08172).
T5 sequence (P08172 whole entry): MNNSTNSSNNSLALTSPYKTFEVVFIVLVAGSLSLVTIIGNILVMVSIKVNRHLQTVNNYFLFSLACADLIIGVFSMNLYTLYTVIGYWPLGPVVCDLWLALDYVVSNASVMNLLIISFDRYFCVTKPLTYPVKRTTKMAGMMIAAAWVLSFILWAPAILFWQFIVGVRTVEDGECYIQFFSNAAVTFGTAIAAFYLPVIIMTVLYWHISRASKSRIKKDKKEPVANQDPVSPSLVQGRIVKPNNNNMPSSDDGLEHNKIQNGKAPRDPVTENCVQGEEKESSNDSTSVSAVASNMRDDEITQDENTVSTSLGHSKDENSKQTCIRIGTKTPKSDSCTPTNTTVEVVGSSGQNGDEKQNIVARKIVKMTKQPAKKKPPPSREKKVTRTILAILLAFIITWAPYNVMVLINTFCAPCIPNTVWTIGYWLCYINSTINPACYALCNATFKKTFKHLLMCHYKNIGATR
Also: assay procedure not described here.

`CN(C)c1ccc(C(=C2C=CC(=[N+](C)C)C=C2)c2ccc(N(C)C)cc2)cc1` [GENTIAN VIOLET]: the AC50 in data set [1] is more than 30 µM; in data set [2] it was 1.43 µM; in data set [3], more than 30 µM; in data set [4] it was 0.845 µM; at Progesterone receptor it was 1.67 µM; in data set [5] (read-out: AC50) it was 1 µM. This compound registered an AC50 in data set [6] of 0.478 µM.
As to `Nc1ccc(S(N)(=O)=O)cc1` [SULFANILAMIDE], the AC50 (in data set [1]; in data set [2]; in data set [3]; in data set [4]; at Progesterone receptor; in data set [6]) was more than 30 µM in each case.
As to HYDROXOCOBALAMIN, the AC50 in data set [5] (human, cellular components) was more than 30 µM.

In general, AC50 refers to the concentration at which the activity in the assay is half-maximal.
